The source of these data is the NIST ThermoML archive (doi:10.1021/je900977e).

The vapor or sublimation pressure is the equilibrium pressure above the liquid or solid.

SMILES strings stand for the structures. “And” between values parts separate entries of the source, which are not always exact repeats. Equal values may be shown once. ± gives the expanded uncertainty stated by the source.

The conditions of this data set: 313.15 K; Liquid; Closed cell (Static) method.
In the case of `c1ccccc1` [benzene], the “vapor or sublimation pressure” value was 24.4 ± 0.094 kPa and 24.38 ± 0.094 kPa.

As for `CC(C)OC(C)C` [diisopropyl ether], the “vapor or sublimation pressure” value was 37.11 ± 0.14 kPa and 37.13 ± 0.14 kPa.

For the compound `CC(C)O` [propan-2-ol], the “vapor or sublimation pressure” value was 13.9 ± 0.06 kPa and 13.89 ± 0.06 kPa.
